Measured values: ChEMBL document CHEMBL5104192, “Late-Stage Functionalization with Cysteine Staples Generates Potent and Selective Melanocortin Receptor-1 Agonists” (J Med Chem, 2022)
*1 amine or outer side, *2 acyl side, *3 side chain or, on linkers, in order; H or OH if unused. Where a SMILES comes first, the peptide text is derived from it. Bridges are numbered along the chain shown (N, C = ends). [ ]: non-standard residue; d: D form. X6 = O=C(NCCOCCOCCNC(=O)c1ccc2c(c1)C(=O)OC21c2ccc(O)cc2Oc2cc(O)ccc21)OCC1C2CCc3c([*:1])nnc([*:2])c3CCC21; X5 = O=C(O)CCOCCOCCOCCOCCNC(=O)OCC1C2CCc3c([*:1])nnc([*:2])c3CCC21; X2 = NCCOCCOCCNC(=O)OCC1C2CCc3c([*:1])nnc([*:2])c3CCC21; Maleimide(3,4-diyl) = O=C1NC(=O)C([*:2])=C1[*:1]; X4 = C#CCCCCN1C(=O)C([*:1])=C([*:2])C1=O; X3 = NC(=O)/C(=C(\C(=O)O)[*:2])[*:1]; mXylylene = c1cc(C[*:1])cc(C[*:2])c1; pXylylene = c1cc(C[*:2])ccc1C[*:1]; NMeR = CN[C@@H](CCCNC(=N)N)C(=O)O; X1 = n1nc([*:2])nnc1[*:1]; Nle = CCCC[C@H](N)C(=O)O

What was measured:
[1] = molecular target: T1, Melanocyte-stimulating hormone receptor (Homo sapiens, UniProt Q01726); assay: Displacement of [125I]-NDP-alpha-MSH from human MC1R expressed in HEK2936E cell membrane measured after 16 to 23 hrs by 1450 microbeta trilux scintillation proximity assay; format: cell membranes
T1 sequence (Q01726 whole entry): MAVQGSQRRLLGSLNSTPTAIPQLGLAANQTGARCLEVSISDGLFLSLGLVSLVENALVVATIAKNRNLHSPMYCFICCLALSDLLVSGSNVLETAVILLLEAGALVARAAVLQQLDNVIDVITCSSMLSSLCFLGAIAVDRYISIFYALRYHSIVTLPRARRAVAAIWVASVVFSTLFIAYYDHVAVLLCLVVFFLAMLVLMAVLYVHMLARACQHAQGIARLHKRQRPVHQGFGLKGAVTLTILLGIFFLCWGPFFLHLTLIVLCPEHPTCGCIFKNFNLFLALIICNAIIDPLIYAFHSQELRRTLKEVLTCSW

Homo sapiens [2] = organism: Homo sapiens; assay: Selectivity ratio of Ki for human MC4R to Ki for human MC1R
Melanocortin receptor 4 [3] = molecular target: T2, Melanocortin receptor 4 (Homo sapiens, UniProt P32245); assay: Displacement of [125I]-NDP-alpha-MSH from human MC4R expressed in HEK2936E cell membrane measured after 16 to 23 hrs by 1450 microbeta trilux scintillation proximity assay; format: cell membranes
T2 sequence (P32245 whole entry): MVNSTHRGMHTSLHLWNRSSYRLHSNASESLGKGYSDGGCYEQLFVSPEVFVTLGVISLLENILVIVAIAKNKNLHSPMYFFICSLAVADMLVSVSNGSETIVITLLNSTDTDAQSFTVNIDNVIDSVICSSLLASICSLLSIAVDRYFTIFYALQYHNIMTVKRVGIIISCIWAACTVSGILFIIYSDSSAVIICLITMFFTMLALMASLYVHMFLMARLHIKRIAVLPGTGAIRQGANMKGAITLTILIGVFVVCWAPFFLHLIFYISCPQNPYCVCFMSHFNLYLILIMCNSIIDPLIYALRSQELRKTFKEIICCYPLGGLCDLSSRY

Melanocortin receptor 3 [4] = molecular target: T3, Melanocortin receptor 3 (Homo sapiens, UniProt P41968); assay: Displacement of [125I]-NDP-alpha-MSH from human MC3R expressed in HEK2936E cell membrane measured after 16 to 23 hrs by 1450 microbeta trilux scintillation proximity assay; format: cell membranes
T3 sequence (P41968 whole entry): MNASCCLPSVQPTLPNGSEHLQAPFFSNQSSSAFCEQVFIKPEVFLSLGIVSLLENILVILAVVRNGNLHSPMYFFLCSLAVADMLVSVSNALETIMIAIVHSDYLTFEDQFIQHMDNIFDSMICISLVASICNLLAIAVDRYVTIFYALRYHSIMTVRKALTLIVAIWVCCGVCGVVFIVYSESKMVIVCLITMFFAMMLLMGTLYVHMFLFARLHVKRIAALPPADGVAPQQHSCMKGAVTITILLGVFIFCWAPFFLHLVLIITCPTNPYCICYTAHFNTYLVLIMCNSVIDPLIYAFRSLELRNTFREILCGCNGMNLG

Homo sapiens [5] = organism: Homo sapiens; assay: Selectivity ratio of EC50 for human MC3R to EC50 for human MC1R
Homo sapiens [6] = organism: Homo sapiens; assay: Selectivity ratio of Ki for human MC3R to Ki for human MC1R
Melanocortin receptor 4 [7] = molecular target: T2, Melanocortin receptor 4; assay: Agonist activity at human MC4R expressed in HEK2936E cells assessed as cAMP production in presence of IBMX by time resolved fluorescence assay; format: functional, cell-based
[8] = molecular target: T1, Melanocyte-stimulating hormone receptor; assay: Agonist activity at human MC1R expressed in HEK2936E cells assessed as cAMP production in presence of IBMX by time resolved fluorescence assay; format: functional, cell-based
Homo sapiens [9] = organism: Homo sapiens; assay: Selectivity ratio of EC50 for human MC4R to EC50 for human MC1R
Melanocortin receptor 3 [10] = molecular target: T3, Melanocortin receptor 3; assay: Agonist activity at human MC3R expressed in HEK2936E cells assessed as cAMP production in presence of IBMX by time resolved fluorescence assay; format: functional, cell-based

Compound	Ki [1]	Ratio Ki (Homo sapiens [2])	Ki (Melanocortin receptor 4 [3])	Ki (Melanocortin receptor 3 [4])	Ratio EC50 (Homo sapiens [5])	Ratio Ki (Homo sapiens [6])	EC50 (Melanocortin receptor 4 [7])	EC50 ([8]; read-out: pEC50 (converted))	Ratio EC50 (Homo sapiens [9])	EC50 (Melanocortin receptor 3 [10])	EC50 ([8]; read-out: EC50)
C#CCCCCN1C(=O)C2=C(SC[C@@H]3NC(=O)[C@H](CCCNC(=N)N)NC(=O)[C@H](CC(=O)O)NC(=O)[C@H](Cc4c[nH]c5ccccc45)NC(=O)[C@H](CCCNC(=N)N)NC(=O)[C@H](Cc4ccccc4)NC(=O)[C@H](Cc4cnc[nH]4)NC(=O)CNC(=O)[C@H](CCCC)NC(=O)[C@H](CS2)NC(=O)[C@H](CCCNC(=N)N)NC(=O)[C@H](Cc2c[nH]c4ccccc24)NC(=O)[C@H](CCCNC(=N)N)NC(=O)[C@H](Cc2ccccc2)NC(=O)[C@H](Cc2cnc[nH]2)NC3=O)C1=O (cyclo(CHFRWRC[Nle]GHFRWDR); linker 1-7 via X4)	1.78 nM	35	61.7 nM	16.6 nM	2	9	2.19 nM	0.0813 nM	27	0.158 nM	
CCCC[C@@H]1NC(=O)[C@@H]2CSc3nnc(nn3)SC[C@H](NC(=O)[C@H](CCCNC(=N)N)NC(=O)[C@H](CC(=O)O)NC(=O)[C@H](Cc3c[nH]c4ccccc34)NC(=O)[C@H](CCCNC(=N)N)NC(=O)[C@H](Cc3ccccc3)NC(=O)[C@H](Cc3cnc[nH]3)NC(=O)CNC1=O)C(=O)N[C@@H](Cc1cnc[nH]1)C(=O)N[C@@H](Cc1ccccc1)C(=O)N[C@@H](CCCNC(=N)N)C(=O)N[C@@H](Cc1c[nH]c3ccccc13)C(=O)N[C@@H](CCCNC(=N)N)C(=O)N2 (cyclo(CHFRWRC[Nle]GHFRWDR); linker 1-7 via X1)	0.724 nM	47	33.9 nM	11 nM	4	15	1.78 nM	0.0447 nM	40	0.182 nM	0.004 nM
CCCC[C@@H]1NC(=O)[C@@H]2CSC/C(=N/OCC(=O)NCCOCCOCCOCCN=[N+]=[N-])CSC[C@H](NC(=O)[C@H](CCCNC(=N)N)NC(=O)[C@H](CC(=O)O)NC(=O)[C@H](Cc3c[nH]c4ccccc34)NC(=O)[C@H](CCCNC(=N)N)NC(=O)[C@H](Cc3ccccc3)NC(=O)[C@H](Cc3cnc[nH]3)NC(=O)CNC1=O)C(=O)N[C@@H](Cc1cnc[nH]1)C(=O)N[C@@H](Cc1ccccc1)C(=O)N[C@@H](CCCNC(=N)N)C(=O)N[C@@H](Cc1c[nH]c3ccccc13)C(=O)N[C@@H](CCCNC(=N)N)C(=O)N2	0.389 nM	79	30.9 nM	5.5 nM	2	14	3.02 nM	0.0468 nM	65	0.105 nM	
CCCC[C@@H]1NC(=O)[C@@H]2CSSC[C@H](NC(=O)[C@H](CCCNC(=N)N)NC(=O)[C@H](CC(=O)O)NC(=O)[C@H](Cc3c[nH]c4ccccc34)NC(=O)[C@H](CCCNC(=N)N)NC(=O)[C@H](Cc3ccccc3)NC(=O)[C@H](Cc3cnc[nH]3)NC(=O)CNC1=O)C(=O)N[C@@H](Cc1cnc[nH]1)C(=O)N[C@@H](Cc1ccccc1)C(=O)N[C@@H](CCCNC(=N)N)C(=O)N[C@@H](Cc1c[nH]c3ccccc13)C(=O)N[C@@H](CCCNC(=N)N)C(=O)N2 (cyclo(CHFRWRC[Nle]GHFRWDR); disulfide 1-7)	3.31 nM	25	81.3 nM	20.9 nM	1	6	8.13 nM	0.339 nM	35	0.229 nM	
CC[C@H](C)[C@@H]1NC(=O)[C@@H]2CCCN2C(=O)[C@H](Cc2c[nH]c3ccccc23)NC(=O)[C@H](CCCNC(=N)N)N(C)C(=O)[C@H](Cc2ccccc2)NC(=O)[C@H](Cc2cnc[nH]2)NC(=O)[C@H]([C@@H](C)O)NC(=O)[C@@H](NC(C)=O)CSCc2ccc(cc2)CSC[C@@H](C(N)=O)NC1=O (Ac-CTHF[NMeR]WPIC-NH2; linker 1-9 via pXylylene)	112 nM	7	759 nM	9770 nM	32	87	309 nM	5.13 nM	60	162 nM	
CCCC[C@@H]1NC(=O)[C@@H]2CSc3nnc(c4c3CCC3C(CC4)C3COC(=O)NCCOCCOCCOCCOCCC(=O)O)SC[C@H](NC(=O)[C@H](CCCNC(=N)N)NC(=O)[C@H](CC(=O)O)NC(=O)[C@H](Cc3c[nH]c4ccccc34)NC(=O)[C@H](CCCNC(=N)N)NC(=O)[C@H](Cc3ccccc3)NC(=O)[C@H](Cc3cnc[nH]3)NC(=O)CNC1=O)C(=O)N[C@@H](Cc1cnc[nH]1)C(=O)N[C@@H](Cc1ccccc1)C(=O)N[C@@H](CCCNC(=N)N)C(=O)N[C@@H](Cc1c[nH]c3ccccc13)C(=O)N[C@@H](CCCNC(=N)N)C(=O)N2 (stereo partly drawn) (cyclo(CHFRWRC[Nle]GHFRWDR); linker 1-7 via X5)	0.631 nM	263	166 nM	35.5 nM	7	56	10.5 nM	0.0891 nM	117	0.603 nM	
CCCC[C@@H]1NC(=O)[C@@H]2CSc3nnc(c4c3CCC3C(CC4)C3COC(=O)NCCOCCOCCNC(=O)c3ccc4c(c3)C(=O)OC43c4ccc(O)cc4Oc4cc(O)ccc43)SC[C@H](NC(=O)[C@H](CCCNC(=N)N)NC(=O)[C@H](CC(=O)O)NC(=O)[C@H](Cc3c[nH]c4ccccc34)NC(=O)[C@H](CCCNC(=N)N)NC(=O)[C@H](Cc3ccccc3)NC(=O)[C@H](Cc3cnc[nH]3)NC(=O)CNC1=O)C(=O)N[C@@H](Cc1cnc[nH]1)C(=O)N[C@@H](Cc1ccccc1)C(=O)N[C@@H](CCCNC(=N)N)C(=O)N[C@@H](Cc1c[nH]c3ccccc13)C(=O)N[C@@H](CCCNC(=N)N)C(=O)N2 (stereo partly drawn) (cyclo(CHFRWRC[Nle]GHFRWDR); linker 1-7 via X6)	2.82 nM	93	263 nM	30.9 nM	4	11	16.6 nM	0.24 nM	69	0.955 nM	< 0.3 nM
CCCC[C@@H]1NC(=O)[C@@H]2CSC3=C(SC[C@H](NC(=O)[C@H](CCCNC(=N)N)NC(=O)[C@H](CC(=O)O)NC(=O)[C@H](Cc4c[nH]c5ccccc45)NC(=O)[C@H](CCCNC(=N)N)NC(=O)[C@H](Cc4ccccc4)NC(=O)[C@H](Cc4cnc[nH]4)NC(=O)CNC1=O)C(=O)N[C@@H](Cc1cnc[nH]1)C(=O)N[C@@H](Cc1ccccc1)C(=O)N[C@@H](CCCNC(=N)N)C(=O)N[C@@H](Cc1c[nH]c4ccccc14)C(=O)N[C@@H](CCCNC(=N)N)C(=O)N2)C(=O)NC3=O (cyclo(CHFRWRC[Nle]GHFRWDR); linker 1-7 via Maleimide(3,4-diyl))	3.63 nM	22	81.3 nM	28.2 nM	1	8	5.01 nM	0.288 nM	17	0.398 nM	
CCCC[C@@H]1NC(=O)[C@@H]2CSc3nnc(c4c3CCC3C(CC4)C3COC(=O)NCCOCCOCCN)SC[C@H](NC(=O)[C@H](CCCNC(=N)N)NC(=O)[C@H](CC(=O)O)NC(=O)[C@H](Cc3c[nH]c4ccccc34)NC(=O)[C@H](CCCNC(=N)N)NC(=O)[C@H](Cc3ccccc3)NC(=O)[C@H](Cc3cnc[nH]3)NC(=O)CNC1=O)C(=O)N[C@@H](Cc1cnc[nH]1)C(=O)N[C@@H](Cc1ccccc1)C(=O)N[C@@H](CCCNC(=N)N)C(=O)N[C@@H](Cc1c[nH]c3ccccc13)C(=O)N[C@@H](CCCNC(=N)N)C(=O)N2 (stereo partly drawn) (cyclo(CHFRWRC[Nle]GHFRWDR); linker 1-7 via X2)	0.0575 nM	347	20 nM	5.13 nM	12	89	1.12 nM	< 0.00912 nM	123	0.107 nM	< 0.009 nM
CC[C@H](C)[C@@H]1NC(=O)[C@@H]2CCCN2C(=O)[C@H](Cc2c[nH]c3ccccc23)NC(=O)[C@H](CCCNC(=N)N)N(C)C(=O)[C@H](Cc2ccccc2)NC(=O)[C@H](Cc2cnc[nH]2)NC(=O)[C@H]([C@@H](C)O)NC(=O)[C@@H](NC(C)=O)CSCc2cccc(c2)CSC[C@@H](C(N)=O)NC1=O (Ac-CTHF[NMeR]WPIC-NH2; linker 1-9 via mXylylene)	110 nM	12	1290 nM	9120 nM	66	83	302 nM	2.95 nM	103	195 nM	
CCCC[C@@H]1NC(=O)[C@@H]2CS/C(C(=O)O)=C(/C(N)=O)SC[C@H](NC(=O)[C@H](CCCNC(=N)N)NC(=O)[C@H](CC(=O)O)NC(=O)[C@H](Cc3c[nH]c4ccccc34)NC(=O)[C@H](CCCNC(=N)N)NC(=O)[C@H](Cc3ccccc3)NC(=O)[C@H](Cc3cnc[nH]3)NC(=O)CNC1=O)C(=O)N[C@@H](Cc1cnc[nH]1)C(=O)N[C@@H](Cc1ccccc1)C(=O)N[C@@H](CCCNC(=N)N)C(=O)N[C@@H](Cc1c[nH]c3ccccc13)C(=O)N[C@@H](CCCNC(=N)N)C(=O)N2 (cyclo(CHFRWRC[Nle]GHFRWDR); linker 1-7 via X3)	9.77 nM	31	302 nM	295 nM	5	30	11.2 nM	0.479 nM	23	2.57 nM	
